Paper PMC9573696, “Experimental Examination of Solubility and Lipophilicity as Pharmaceutically Relevant Points of Novel Bioactive Hybrid Compounds” (Molecules, 2022)

Assay: Partition in system 1-octanol/buffer pH 7.4, shake-flask method
Assay type: physicochemical
Details: for sb × 10^6 (concentration in buffer) / so × 10^3 (concentration in 1-octanol) / xb × 10^7 (mole fraction in buffer) / xo × 10^4 (mole fraction in 1-octanol) / logPo/b / sb × 10^5 (concentration in buffer) / so × 10^4 (concentration in 1-octanol) / xo × 10^5 (mole fraction in 1-octanol): 1-octanol/buffer pH 7.4; for logPo/b / logD at 2 days: from concentrations in mol∙L^−1; for logP at 2 days: from concentrations in mole fraction
Procedure: The partition coefficients of the new hybrid compounds in the model system 1-octanol/buffer pH 7.4 as a lipophilicity surrogate were determined experimentally. […] It is the lipophilic properties that allow the hybrids to move from the water phase to the less hydrophilic octanol phase, where the solute–solvent intermolecular interactions are more favourable. According to the results shown in Table 5, the order of changes in the partition coefficients logPo/b at T = 298.15 K, depending on the substituent nature, is expressed as the inequality: Cl- (1.65) < F- (2.40) < CH3- (2.50). Compounds I and II are the most lipophilic in the series of the studied substances, whereas the introduction of a chlorine atom considerably lowers the partition coefficient (~0.8 log units). This fact agrees with the common concept that lipophilic groups are usually hydrocarbon or fluorine-containing radicals. […] For drugs with such partition coefficients, there is a good balance between the solubility and permeability through passive diffusion and minimum metabolism due to the low binding capacity with enzymes.
The octanol/buffer pH 7.4 partition coefficient logPO/B is measured in a static mode using the shake-flask method. The procedure has been presented as standard in the Organization for Economic Cooperation and Development (OECD) guidelines for testing chemicals. The equipment described above was also used for the determination of the 1-octanol/water partition coefficients. […] The correctness of the obtained value of each compound was verified by checking the mass balance of the starting amount of the compound and the total amount of the compound partitioned between the two phases.
To aim evaluated transfer (partition) thermodynamic functions, the 1-octanol/buffer partition coefficients P^* o/b as the ratio of equilibrium concentrations in the organic (xo) and aqueous phases (xb) expressed in mole fractions were calculated: P* o/b = xo/xb(12)

[1] = pH 7.4, 1-octanol/buffer pH 7.4, 293.15 K
[2] = pH 7.4, 1-octanol/buffer pH 7.4, 298.15 K
[3] = pH 7.4, 1-octanol/buffer pH 7.4, 303.15 K
[4] = pH 7.4, 1-octanol/buffer pH 7.4, 313.15 K
[5] = 1-octanol/buffer pH 7.4, pH 7.4, 1-octanol/buffer pH 7.4, 293.15 K
[6] = 1-octanol/buffer pH 7.4, pH 7.4, 1-octanol/buffer pH 7.4, 298.15 K
[7] = 1-octanol/buffer pH 7.4, pH 7.4, 1-octanol/buffer pH 7.4, 303.15 K
[8] = 1-octanol/buffer pH 7.4, pH 7.4, 1-octanol/buffer pH 7.4, 308.15 K
[9] = 1-octanol/buffer pH 7.4, pH 7.4, 1-octanol/buffer pH 7.4, 313.15 K

With Cc1ccc(-n2c(=S)sc3c(=O)n(CCCN4CCN(CC(O)(Cn5cncn5)c5ccc(F)cc5F)CC4)cnc32)cc1 (centres unmarked) [I, 6-[3-[4-[2-(2,4-difluorophenyl)-2-hydroxy-3-(1H-1,2,4-triazol-1-yl)propyl]-1-piperazinyl]propyl]-2,3-dihydro-3-(4-methylphenyl)-2-thioxo-thiazolo[4,5-d]pyrimidin-7(6H)-one] the “sb × 10^6 (concentration in buffer)” value (293.15 K) was 10.2 mol∙L^−1 (printed as sb × 10^6, the “so × 10^3 (concentration in 1-octanol)” value (293.15 K) was 2.88 mol∙L^−1 (printed as so × 10^3 and the “xb × 10^7 (mole fraction in buffer)” value (293.15 K) was 1.82 mole fraction (printed as xb ×. The “xo × 10^4 (mole fraction in 1-octanol)” value (293.15 K) was 4.54 mole fraction (printed as xo ×, the “sb × 10^6 (concentration in buffer)” value (298.15 K) was 9.11 mol∙L^−1 (printed as sb × 10^6 and the “so × 10^3 (concentration in 1-octanol)” value (298.15 K) was 2.88 mol∙L^−1 (printed as so × 10^3. For the same molecule, the “xb × 10^7 (mole fraction in buffer)” value (298.15 K) was 1.63 mole fraction (printed as xb ×, the “xo × 10^4 (mole fraction in 1-octanol)” value (298.15 K) was 4.57 mole fraction (printed as xo × and the “sb × 10^6 (concentration in buffer)” value (303.15 K) was 7.95 mol∙L^−1 (printed as sb × 10^6. The “so × 10^3 (concentration in 1-octanol)” value (303.15 K) was 2.88 mol∙L^−1 (printed as so × 10^3, the “xb × 10^7 (mole fraction in buffer)” value (303.15 K) was 1.43 mole fraction (printed as xb × and the “xo × 10^4 (mole fraction in 1-octanol)” value (303.15 K) was 4.59 mole fraction (printed as xo ×. The “sb × 10^6 (concentration in buffer)” value (308.15 K) was 7.16 mol∙L^−1 (printed as sb × 10^6, the “so × 10^3 (concentration in 1-octanol)” value (308.15 K) was 2.88 mol∙L^−1 (printed as so × 10^3 and the “xb × 10^7 (mole fraction in buffer)” value (308.15 K) was 1.29 mole fraction (printed as xb ×. For the same molecule, the “xo × 10^4 (mole fraction in 1-octanol)” value (308.15 K) was 4.61 mole fraction (printed as xo ×, the logPo/b (308.15 K) was 2.60 and the “sb × 10^6 (concentration in buffer)” value (313.15 K) was 6.38 mol∙L^−1 (printed as sb × 10^6. The “so × 10^3 (concentration in 1-octanol)” value (313.15 K) was 2.88 mol∙L^−1 (printed as so × 10^3, the “xb × 10^7 (mole fraction in buffer)” value (313.15 K) was 1.15 mole fraction (printed as xb × and the “xo × 10^4 (mole fraction in 1-octanol)” value (313.15 K) was 4.63 mole fraction (printed as xo ×. For the same molecule, the logP at 2 days [1] was 3.39, the logD at 2 days [1] was 2.45 and the logP at 2 days [2] was 3.44. It also gave a logD at 2 days [2] of 2.5, a logP at 2 days [3] of 3.5 and a logD at 2 days [3] of 2.56. It also gave a logP at 2 days (pH 7.4, 1-octanol/buffer pH 7.4, 308.15 K) of 3.55, a logP at 2 days [4] of 3.6 and a logD at 2 days [4] of 2.65.
Molecule O=c1c2sc(=S)n(-c3ccc(F)cc3)c2ncn1CCCN1CCN(CC(O)(Cn2cncn2)c2ccc(F)cc2F)CC1 (centres unmarked) [II, 6-[3-[4-[2-(2,4-difluorophenyl)-2-hydroxy-3-(1H-1,2,4-triazol-1-yl)propyl]-1-piperazinyl]propyl]-2,3-dihydro-3-(4-fluorophenyl)-2-thioxo-thiazolo[4,5-d]pyrimidin-7(6H)-one] has a logP at 2 days [5] of 3.3, a logD at 2 days [5] of 2.36 and a logP at 2 days [6] of 3.34. The logP at 2 days [7] was 3.37, the logD at 2 days [7] was 2.43 and the logP at 2 days [8] was 3.41. For the same molecule, the logP at 2 days [9] was 3.45, the logD at 2 days [9] was 2.5 and the “sb × 10^5 (concentration in buffer)” value (293.15 K) was 1.47 mol∙L^−1 (printed as sb × 10^5. For the same molecule, the “so × 10^3 (concentration in 1-octanol)” value (293.15 K) was 3.39 mol∙L^−1 (printed as so × 10^3, the “xb × 10^7 (mole fraction in buffer)” value (293.15 K) was 2.67 mole fraction (printed as xb × and the “xo × 10^4 (mole fraction in 1-octanol)” value (293.15 K) was 5.34 mole fraction (printed as xo ×. For the same molecule, the “sb × 10^5 (concentration in buffer)” value (298.15 K) was 1.35 mol∙L^−1 (printed as sb × 10^5, the “so × 10^3 (concentration in 1-octanol)” value (298.15 K) was 3.39 mol∙L^−1 (printed as so × 10^3 and the “xb × 10^7 (mole fraction in buffer)” value (298.15 K) was 2.45 mole fraction (printed as xb ×. For the same molecule, the “xo × 10^4 (mole fraction in 1-octanol)” value (298.15 K) was 5.37 mole fraction (printed as xo ×, the logPo/b (298.15 K) was 2.40 and the “sb × 10^5 (concentration in buffer)” value (303.15 K) was 1.25 mol∙L^−1 (printed as sb × 10^5. For the same molecule, the “so × 10^3 (concentration in 1-octanol)” value (303.15 K) was 3.39 mol∙L^−1 (printed as so × 10^3, the “xo × 10^4 (mole fraction in 1-octanol)” value (303.15 K) was 5.39 mole fraction (printed as xo × and the “sb × 10^5 (concentration in buffer)” value (308.15 K) was 1.15 mol∙L^−1 (printed as sb × 10^5. For the same molecule, the “so × 10^3 (concentration in 1-octanol)” value (308.15 K) was 3.39 mol∙L^−1 (printed as so × 10^3, the “xb × 10^7 (mole fraction in buffer)” value (308.15 K) was 2.08 mole fraction (printed as xb × and the “xo × 10^4 (mole fraction in 1-octanol)” value (308.15 K) was 5.42 mole fraction (printed as xo ×. For the same molecule, the logPo/b (308.15 K) was 2.47, the “sb × 10^5 (concentration in buffer)” value (313.15 K) was 1.06 mol∙L^−1 (printed as sb × 10^5 and the “so × 10^3 (concentration in 1-octanol)” value (313.15 K) was 3.39 mol∙L^−1 (printed as so × 10^3. The “xb × 10^7 (mole fraction in buffer)” value (313.15 K) was 1.94 mole fraction (printed as xb × and the “xo × 10^4 (mole fraction in 1-octanol)” value (313.15 K) was 5.44 mole fraction (printed as xo ×.
Work on O=c1c2sc(=S)n(-c3ccc(Cl)cc3)c2ncn1CCCN1CCN(CC(O)(Cn2cncn2)c2ccc(F)cc2F)CC1 (centres unmarked) [III, 6-[3-[4-[2-(2,4-difluorophenyl)-2-hydroxy-3-(1H-1,2,4-triazol-1-yl)propyl]-1-piperazinyl]propyl]-2,3-dihydro-3-(4-chlorophenyl)-2-thioxo-thiazolo[4,5-d]pyrimidin-7(6H)-one] yielded a logP at 2 days [5] of 2.56, a logD at 2 days [5] of 1.62 and a logP at 2 days [6] of 2.59. The logP at 2 days [7] was 2.61, the logP at 2 days [8] was 2.64 and the logD at 2 days [8] was 1.7. The logP at 2 days [9] was 2.69, the logD at 2 days [9] was 1.73 and the “sb × 10^6 (concentration in buffer)” value (293.15 K) was 9.29 mol∙L^−1 (printed as sb × 10^6. The “so × 10^4 (concentration in 1-octanol)” value (293.15 K) was 3.89 mol∙L^−1 (printed as so × 10^4, the “xb × 10^7 (mole fraction in buffer)” value (293.15 K) was 1.69 mole fraction (printed as xb × and the “xo × 10^5 (mole fraction in 1-octanol)” value (293.15 K) was 6.14 mole fraction (printed as xo ×. The “sb × 10^6 (concentration in buffer)” value (298.15 K) was 8.77 mol∙L^−1 (printed as sb × 10^6, the “so × 10^4 (concentration in 1-octanol)” value (298.15 K) was 3.90 mol∙L^−1 (printed as so × 10^4 and the “xb × 10^7 (mole fraction in buffer)” value (298.15 K) was 1.60 mole fraction (printed as xb ×. For the same molecule, the “xo × 10^5 (mole fraction in 1-octanol)” value (298.15 K) was 6.17 mole fraction (printed as xo ×, the logPo/b (298.15 K) was 1.65 and the “sb × 10^6 (concentration in buffer)” value (303.15 K) was 8.29 mol∙L^−1 (printed as sb × 10^6. For the same molecule, the “so × 10^4 (concentration in 1-octanol)” value (303.15 K) was 3.91 mol∙L^−1 (printed as so × 10^4, the “xb × 10^7 (mole fraction in buffer)” value (303.15 K) was 1.51 mole fraction (printed as xb × and the “xo × 10^5 (mole fraction in 1-octanol)” value (303.15 K) was 6.21 mole fraction (printed as xo ×. The logPo/b (303.15 K) was 1.67, the “sb × 10^6 (concentration in buffer)” value (308.15 K) was 7.80 mol∙L^−1 (printed as sb × 10^6 and the “so × 10^4 (concentration in 1-octanol)” value (308.15 K) was 3.91 mol∙L^−1 (printed as so × 10^4. For the same molecule, the “xb × 10^7 (mole fraction in buffer)” value (308.15 K) was 1.42 mole fraction (printed as xb ×, the “xo × 10^5 (mole fraction in 1-octanol)” value (308.15 K) was 6.24 mole fraction (printed as xo × and the “sb × 10^6 (concentration in buffer)” value (313.15 K) was 7.36 mol∙L^−1 (printed as sb × 10^6. The “so × 10^4 (concentration in 1-octanol)” value (313.15 K) was 3.92 mol∙L^−1 (printed as so × 10^4, the “xb × 10^7 (mole fraction in buffer)” value (313.15 K) was 1.35 mole fraction (printed as xb × and the “xo × 10^5 (mole fraction in 1-octanol)” value (313.15 K) was 6.28 mole fraction (printed as xo ×.
